Results from publication PMC4669789, “Selective inhibition of HDAC8 decreases neuroblastoma growth in vitro and in vivo and enhances retinoic acid-mediated differentiation” (Cell Death & Disease, 2015).

How the values were obtained:
BE(2)-C cells [1] = assay: Longer-term colony assay; assay type: cell-based, human; settings: ATRA 10 μM, 18 days, empty vector control cells
Description: In six-well plates, 500 cells were seeded and treated as indicated. Viable colonies were stained after a minimum of 10 days with crystal violet. For quantification, the mean intensity of each well of the 8-bit binary picture was measured with ImageJ software (U. S. National Institutes of Health, Bethesda, MD, USA; http://imagej.nih.gov/ij/).

BE(2)-C cells [2] = assay: Western blot of histone 4, α-tubulin and SMC3 acetylation; assay type: cell-based, human; settings: working concentrations: 40 μM Cpd2, 4 μM PCI-34051 and PCI-48000
Description: Western blot analysis was performed as described previously.[15] For detection of phosphoproteins, PhosStop (Roche, Penzberg, Germany) was added to the lysis buffer.

[3] = system: neuroblastoma cell culture; assay: Intracellular whole lysine acetylation via FACS; assay type: cell-based, human
Description: Cells were collected, washed with PBS and fixed with 2% paraformaldehyde for 15 min at room temperature (RT). Cells were permeabilized by incubation with 50 μg/ml digitonin for 6 min at RT. Cells were incubated with primary antibody overnight at 4 °C. After staining with Cy3-conjugated anti-rabbit antibody, cells were analyzed by FACS using CellQuest software (BD Biosciences, San Jose, CA, USA). The following primary antibodies were used: anti-acetylated lysine (polyclonal; Cell Signaling) and anti-neurofilament-M (clone EP2460; Epitomics, Burlingame, CA, USA).

PBMCs = assay: Whole lysine acetylation in PBMC after intraperitoneal administration (FACS); assay type: in vivo, mouse; settings: 150 mg/kg/d; solvent 32.1
Description: Both inhibitors were intraperitoneally injected into NMRI Foxn1 nude mice in increasing doses from 40 up to 400 mg/kg per day for 2 × 5 days. Each dose was tested in a cohort of three animals. Resulting MTDs were validated within cohorts of eight animals for each inhibitor. […] As a reference, the blood of 12 untreated NMRI Foxn1 nude mice was analyzed. […] Vorinostat was used as a control for unselective HDAC inhibition.
Whole blood (100 μl) was collected from the femoral vein of untreated athymic NMRI nude mice (HsdCpb:NMRI-Foxn1^nu; Harlan Laboratories Inc.), and respective animals were killed 2 h after intraperitoneal injection of substances. For the analysis of whole acetylation levels, mice were killed at half-life time of the inhibitors. Whole blood with heparin was added to RBC lysis buffer (diluted 1 : 10) (BioLegend, San Diego, CA, USA) at a ratio of 1 : 4. Next, red blood cell lysis was performed according to the manufacturer's instructions. PBMCs were lysed in SDS lysis buffer for western blot or processed for FACS analysis.

nude mice = assay: Tolerability during xenograft and long-term treatment (body weight, clinical signs); settings: mouse, in vivo
Excerpt: Next, we determined the in vivo efficacy of HDAC8-selective inhibition in neuroblastoma xenograft mouse models. […] One week after tumor cell injection, mice established a palpable tumor mass and the animals were then randomly assigned to treatment and control cohorts.

NMRI Foxn1 nude mice = settings: mouse, in vivo; cited from earlier work

Structure (SMILES): CC1=C(/C=C/C(C)=C/C=C/C(C)=C/C(=O)O)C(C)(C)CCC1 [ATRA, all-trans retinoic acid]
- colony formation (BE(2)-C cells [1]): efficiently reduced the ability of empty vector control cells to form colonies

Structure (SMILES): COc1ccc(Cn2ccc3ccc(C(=O)NO)cc32)cc1 [PCI-34051]
- SMC3 acetylation (HDAC8 substrate) (BE(2)-C cells [2]): increase in acetylation level
- histone 4 acetylation (HDAC1-3 substrate) (BE(2)-C cells [2]): absence of HDAC1-3 substrate acetylation
- tubulin acetylation (HDAC6 substrate) (BE(2)-C cells [2]): absence of HDAC6 substrate acetylation

Structure (SMILES): CC(/C=C/C(=O)NO)=C\[C@@H](C)C(=O)c1ccc(N(C)C)cc1 [TSA, trichostatin A]
- whole acetyl-lysine mean fluorescent values (Blank-corrected) ([3]; 75nM, solvent 34.4, second experiment): 92.7
- whole acetyl-lysine mean fluorescent values (Blank-corrected) ([3]; 150nM, solvent 24.7, IMR-32 cells, 24 h per Figure 1c): 115.1
- global lysine acetylation ([3]; pan-HDAC inhibitor control, compared with HDAC8 inhibitors): much stronger induction of global lysine acetylation

Structure (SMILES): O=C(CCCCCCC(=O)Nc1ccccc1)NO [vorinostat, suberoylanilide hydroxamic acid]
- whole acetyl-lysine mean fluorescent values (Blank-corrected), PBMCs (PBMCs): 54.0
- tolerability at the applied dose (nude mice): clear signs of toxicity, such as diarrhea and weight loss
- MTD (NMRI Foxn1 nude mice): 150 mg/kg per day
